# Numbered stars: 1 amine (or outer) side, 2 acyl side, 3 side chain; on linkers, the order of the positions; unused ones are H or OH. * marks the point of attachment. Suc = O=C(CCC(=O)[*:2])[*:1]; Propionyl = CCC(=O)*
# Key:
# Assay type in all cases: in vivo, rat
# [1] = Example 7: combination with metformin in Zucker Diabetic Fatty rats, FPG, PPG, HbA1c; settings: ZDF rats; 8 weeks once daily; metformin 400 mg/kg/day oral, UGP302 5 μg/kg/day s.c.
# Method: (§1) To assess the potential of UGP302 (SEQ ID NO: 15) in combination with metformin, Zucker Diabetic Fatty rats were used. At the age of 6 weeks 40 rats were randomized into four groups according to HbA1c, FPG and BW. The groups were: Control (Vehicle), Metformin 400 mg/kg/day, UGP302 5 μg/kg/day and the combination of the two molecules in the stated respective amounts. The treatments were given once daily, and metformin was dosed orally, while UGP302 was given subcutaneously, and the animals were treated for 8 weeks. Fasting blood glucose (FPG) and non-fasted blood glucose (PPG) were monitored biweekly, while HbA1c was measured at termination.
# [2] = Example 7: insulin tolerance test in Zucker Diabetic Fatty rats; settings: ZDF rats; metformin 400 mg/kg/day oral, UGP302 5 μg/kg/day s.c.
# Method: as §1
# (§2) To further assess the effect of both single doses of each molecule and the combination of these at those same doses, the rats underwent an oral glucose tolerance test (OGTT, FIGS. 23A-23B) and an insulin tolerance test (ITT, FIGS. 24A-24B).
# [3] = Example 7: oral glucose tolerance test in Zucker Diabetic Fatty rats; settings: ZDF rats; metformin 400 mg/kg/day oral, UGP302 5 μg/kg/day s.c.
# Method: as §1, §2
# [4] = Example 3: short-term oral treatment, body weight and food intake in DIO rats; settings: for reduction in body weight vs oral sCT at same dose: DIO rats; for energy balance vs equivalent doses of oral sCT: 0.5, 1 and 2 mg/kg doses p.o., male DIO rats
# Method: The study was performed in male Levin-DIO rats (diet-sensitive) and Levin-DR (diet-resistant) (TacLevin: CD (SD) DIO) (Taconic, Hudson, N.Y., U.S.A.) obtained at age 6-7 weeks. On arrival, DIO rats were given high fat diet (60 kcal %) (#D12495, Research Diets Inc., New Brunswick, N.J., USA) and kept on the same diet for 12 weeks prior to and during the experiment. DR rats were given low-fat diet and served as control group. Animals were pair-wise housed throughout the study. Rats were handled and pre-dosed once daily with MilliQ H2O for 2-3 weeks prior to experimental start to reduce stress-induced hyperglycemia. On the day prior to study start animals were given a single dose of vehicle. Baseline parameters were recorded in an overnight fasting (16 h) condition. Rats were randomized into treatment groups based on fasting body weight (BW) and fasting plasma glucose (FPG). Body weight, food and water intake were recorded prior to and at study end.
# Animals treated with oral sCT or oral UGP284/UGP298/UGP302 received doses of 0.5 mg/kg, 1.0 mg/kg or 2.0 mg/kg combined with 150 mg/kg 5-CNAC—all dissolved in milliQ H2O.
# (§3) Drug administration were given by per oral (p.o.) gavage b.i.d. during the study period and as single dose in the morning prior to start of OGTT.
# (§4) Following the initial (1st) OGTT, animals were randomized into treatment groups based on FBG and BW. Animals were pre-treated 3 days (b.i.d.) prior to 2nd OGTT. The study was performed in an x-over design with each animal being its own control.
# (§5) Statistical analysis was performed by one-way ANOVA followed by the Dunnett's post hoc test for multiple comparison. Student's t-test was performed to compare two paired group. All analysis was performed using GRAPHPAD PRISM software (GraphPad Prism, San Diego, Calif. U.S.A). Incremental area under curve (iAUC) during OGTT was calculated by the trapezoidal method. A value of P<0.05 was considered to be significant. All data are presented as mean±standard error of the mean (SEM).
# FIG. 9A, FIG. 9B, FIG. 9C, FIG. 9D, FIG. 9E, and FIG. 9F show the effect of three different doses of oral sCT/UGP284/UGP298/UGP302 containing 0.5, 1 and 2 mg/kg compound were applied by gavage twice daily to 4 groups of rats for 3 days. * P<0.05, ** P<0.01 vs oral sCT. Results are presented as means±SEM.
# [5] = Example 3: OGTT after 3 days of oral treatment in DIO rats; settings: doses of 0.5, 1 and 2 mg/kg p.o.
# Method: as §3
# Animals were given 2 g/kg single dose dissolved in milliQ H20.
# as §4
# OGTT Following Overnight Fasting (16 h):
# Blood sampling and glycemia were measured by heated tail venous puncture. Whole blood glucose levels were determined with an ACCU-CHEK® Avia blood glucose meter (Roche Diagnostics, Rotkreuz, Switzerland). Blood (approx 300 μl) is collected in 1 ml MiniCollect K3EDTA plasma-tube (Greiner-Bio-One GmbH, Frickenhausen, Germany), inverted, and stored on ice. Tubes are centrifuged 3000×g (5000 rpm in table centrifuge) for 10 min at 4° C. and plasma obtained. Plasma samples are stored at −20° C. until analysis. A total of ˜2.5 ml blood is obtained during OGTT (˜0.3% of body weight).
# as §5
# FIG. 10A, FIG. 10B, FIG. 10C, FIG. 10D, FIG. 10E, and FIG. 10F show the effect of oral sCT versus oral UGPs on glucose tolerance during OGTT in DIO rats. Three different doses of oral sCT/UGP284/UGP298/UGP302 containing 0.5, 1 and 2 mg/kg compound were applied by gavage twice daily to 4 groups of rats for 3 days prior to OGTT. The experimental set-up was a cross-over design. * P<0.05, ** P<0.01, *** P<0.001 vs oral vehicle. Results are presented as means±SEM.
Compound,fasting blood glucose (FPG) [1],non-fasted blood glucose (PPG) [1],insulin tolerance (ITT) [2],glucose tolerance (OGTT) [3],reduction in body weight vs oral sCT at same dose ([4]; 2 mg/kg p.o. b.i.d. for 3 days),energy balance vs equivalent doses of oral sCT [4],glucose tolerance during OGTT [5],reduction in body weight vs oral sCT at same dose ([4]; 1 mg/kg p.o. b.i.d. for 3 days)
"CN(C)C(=N)N=C(N)N [metformin, reference compound]",reduced,reduced,individually improve,individually improve,,,,
"PrCSNLSTCVLGKLSQELHKLQTYPRTNTGSGTP-NH2 (Propionyl-CSNLSTCVLGKLSQELHKLQTYPRTNTGSGTP-NH2; ends and bridges not checked) [UGP284, calcitonin mimetic]",,,,,significantly difference at 2 mg/kg dose,superiority to equivalent doses of oral sCT,improvement in glucose tolerance,
"SuccCSNLSTCVLGKLSQELHKLQTYPRTNTGSGTP-NH2 (Suc-CSNLSTCVLGKLSQELHKLQTYPRTNTGSGTP-NH2; ends and bridges not checked) [UGP298, calcitonin mimetic]",,,,,significantly different when compared with oral sCT,superiority to equivalent doses of oral sCT,improvement in glucose tolerance,significantly different when compared with oral sCT

# — patent US9862754B2, “Peptide analogs for treating diseases and disorders” (KeyBioscience AG, priority 2011, dated 2018)
